Results reported in patent publication US20240044922A1, “DEVICE AND METHODS FOR MEASURING PLATELET-FIBRIN CLOT CONTRACTION KINETICS” (University of Kentucky Research Foundation, priority 2022, published 2024).
Several values for one entry are separate records, joined by “and”; a condition that tells them apart may be missing. Equal entries are not always repeated. Where two headings read alike, the source gives them in different places. Bridge positions count the residues as written; N and C are the ends. Square brackets hold non-standard residues; d marks the D form. Peptide text beside a SMILES is read from it. hArg = N=C(N)NCCCC[C@H](N)C(=O)O; Mpa = O=C(O)CCS

Tested on: washed mouse platelets
Assay: Clot contraction assay, time-lapse imaging of washed mouse platelets with thrombin, fibrinogen and CaCl2
Assay type: cell-based
[1] = blebbistatin 50 μM, standard conditions
[2] = blebbistatin 100 μM, standard conditions
[3] = blebbistatin 200 μM, standard conditions
[4] = CaCl2 0.1 mM, thrombin 20 mU/mL, fibrinogen 250 μg/mL
[5] = CaCl2 0.5 mM, thrombin 20 mU/mL, fibrinogen 250 μg/mL
[6] = CaCl2 1 mM, thrombin 20 mU/mL, fibrinogen 250 μg/mL
[7] = 1 mM EGTA, thrombin 20 mU/mL, fibrinogen 250 μg/mL
[8] = eptifibatide 50 μM, standard conditions
[9] = eptifibatide 100 μM, standard conditions
[10] = eptifibatide 150 μM, standard conditions
[11] = fibrinogen 62 μg/mL, CaCl2 0.5 mM, thrombin 20 mU/mL
[12] = fibrinogen 125 μg/mL, CaCl2 0.5 mM, thrombin 20 mU/mL
[13] = fibrinogen 250 μg/mL, CaCl2 0.5 mM, thrombin 20 mU/mL
[14] = fibrinogen 500 μg/mL, CaCl2 0.5 mM, thrombin 20 mU/mL
[15] = fibrinogen 1000 μg/mL, CaCl2 0.5 mM, thrombin 20 mU/mL

## O=CC[C@@H](O)[C@H](O)[C@H](O)CO [2DG, 2-deoxyglucose, reference compound]
10 mM 2DG
  Reduction of Phase 3 rate: ~5 fold
2DG 5 mM, standard conditions
  AUC: 6.10 AU
  Average Velocity: 0.74 %/min
  Clot Contraction Extent: 72.66%
  Lag time: 23.33 min
  PHASE 1 % Contraction: 2.68%
  PHASE 1 Rate 1: 2.00 ×10^−3 %/min
  PHASE 1 t1: 11.67 min
  PHASE 2 % Contraction: 16.98%
  PHASE 2 Rate 2: 0.88 %/min
  PHASE 2 t2: 30.33 min
  PHASE 3 % Contraction: 53%
  PHASE 3 Rate 3: 1.83 ×10^−2 %/min
2DG 10 mM, standard conditions
  AUC: 7.44 AU
  Average Velocity: 0.51 %/min
  Clot Contraction Extent: 50.55%
  Lag time: 37.00 min
  PHASE 1 % Contraction: 5.82%
  PHASE 1 Rate 1: 3.33 ×10^−3 %/min
  PHASE 1 t1: 23.33 min
  PHASE 2 % Contraction: 13.04%
  PHASE 2 Rate 2: 0.69 %/min
  PHASE 2 t2: 44.33 min
  PHASE 3 % Contraction: 31.68%
  PHASE 3 Rate 3: 0.87 ×10^−2 %/min
2DG 25 mM
  Detection of the three phases of contraction: none of the three phases were detectible
2DG 25 mM, standard conditions
  AUC: 8.57 AU
  Average Velocity: 0.24 %/min
  Clot Contraction Extent: 23.45%
  Lag time: 99.00 min
Varying 2DG concentrations
  Effect on average velocity: significant inhibitory effects
  Effect on extent of contraction: significant inhibitory effects
  Effect on lag time: prolonged lag time

## Cc1ccc2c(c1)C(=O)C1(O)CCN(c3ccccc3)C1=N2 (stereo not shown) [Blebbistatin, blebbistatin, reference compound]
[1]
  AUC: 4.18 AU
  Average Velocity: 1.00 %/min
  Clot Contraction Extent: 96.93%
  Lag time: 23.33 min
  PHASE 1 % Contraction: 4.23%
  PHASE 1 Rate 1: 3.67 ×10^−3 %/min
  PHASE 1 t1: 14.33 min
  PHASE 2 % Contraction: 26.51%
  PHASE 2 Rate 2: 1.40 %/min
  PHASE 2 t2: 32.00 min
  PHASE 3 % Contraction: 66.19%
  PHASE 3 Rate 3: 5.00 ×10^−2 %/min
[2]
  AUC: 6.08 AU
  Average Velocity: 0.88 %/min
  Clot Contraction Extent: 85.15%
  Lag time: 40.00 min
  PHASE 1 % Contraction: 7.21%
  PHASE 1 Rate 1: 4.00 ×10^−3 %/min
  PHASE 1 t1: 24.67 min
  PHASE 2 % Contraction: 28.71%
  PHASE 2 Rate 2: 1.00 %/min
  PHASE 2 t2: 51.00 min
  PHASE 3 % Contraction: 49.27%
  PHASE 3 Rate 3: 3.47 ×10^−2 %/min
[3]
  AUC: 6.79 AU
  Average Velocity: 0.69 %/min
  Clot Contraction Extent: 66.52%
  Lag time: 43.67 min
  PHASE 1 % Contraction: 12.21%
  PHASE 1 Rate 1: 5.00 ×10^−3 %/min
  PHASE 1 t1: 31.00 min
  PHASE 2 % Contraction: 14.17%
  PHASE 2 Rate 2: 0.69 %/min
  PHASE 2 t2: 49.33 min
  PHASE 3 % Contraction: 40.15%
  PHASE 3 Rate 3: 1.70 ×10^−2 %/min
Blebbistatin 50 to 200 μM
  Effect on Phase 2 contraction rate: drastic decrease
  Effect on average velocity: decrease
  Effect on extent of clot contraction: decrease
  Effect on lag time: dose-dependent increase

## [Ca+2].[Cl-].[Cl-] [CaCl2]
[4]
  AUC: 3.78 AU
  Average Velocity: 0.98 %/min
  Clot Contraction Extent: 97.02%
  Lag time: 15.00 min
  PHASE 1 % Contraction: 2.91%
  PHASE 1 Rate 1: 5.00 ×10^−3 %/min
  PHASE 1 t1: 7.00 min
  PHASE 2 % Contraction: 29.63%
  PHASE 2 Rate 2: 1.51 %/min
  PHASE 2 t2: 27.33 min
  PHASE 3 % Contraction: 64.48%
  PHASE 3 Rate 3: 1.51 ×10^−2 %/min
[5]
  AUC: 3.93 AU
  Average Velocity: 0.96 %/min
  Clot Contraction Extent: 95.36%
  Lag time: 15.67 min
  PHASE 1 % Contraction: 3.27%
  PHASE 1 Rate 1: 4.67 ×10^−3 %/min
  PHASE 1 t1: 8.33 min
  PHASE 2 % Contraction: 27.00%
  PHASE 2 Rate 2: 1.43 %/min
  PHASE 2 t2: 28.00 min
  PHASE 3 % Contraction: 65.48%
  PHASE 3 Rate 3: 1.43 ×10^−2 %/min
[6]
  AUC: 3.69 AU
  Average Velocity: 0.99 %/min
  Clot Contraction Extent: 98.08%
  Lag time: 17.67 min
  PHASE 1 % Contraction: 5.50%
  PHASE 1 Rate 1: 5.00 ×10^−3 %/min
  PHASE 1 t1: 12.33 min
  PHASE 2 % Contraction: 31.17%
  PHASE 2 Rate 2: 1.87 %/min
  PHASE 2 t2: 30.00 min
  PHASE 3 % Contraction: 61.41%
  PHASE 3 Rate 3: 1.87 ×10^−2 %/min
Calcium between 0.1 and 1 mM
  Differences in clot contraction: limited differences

## O=C(O)CN(CCOCCOCCN(CC(=O)O)CC(=O)O)CC(=O)O [EGTA, reference compound]
[7]
  AUC: 7.83 AU
  Average Velocity: 0.51 %/min
  Clot Contraction Extent: 50.72%
  Lag time: 71.67 min
EGTA included
  Effect on average contraction velocity: significantly reduced
In the presence of EGTA
  Detection of the three phases of contraction: none of the three phases was detectible

## N=C(N)NCCCC[C@@H]1NC(=O)CCSSC[C@@H](C(N)=O)NC(=O)[C@@H]2CCCN2C(=O)[C@H](Cc2c[nH]c3ccccc23)NC(=O)[C@H](CC(=O)O)NC(=O)CNC1=O [Eptifibatide, eptifibatide, reference compound] ([Mpa][hArg]GDWPC-NH2; disulfide 1-7)
  AUC: 5.51 AU and 6.76 AU and 6.84 AU
[8]
  Average Velocity: 0.91 %/min
  Clot Contraction Extent: 89.56%
  Lag time: 29.33 min
  PHASE 1 % Contraction: 5.36%
  PHASE 1 Rate 1: 3.93 ×10^−3 %/min
  PHASE 1 t1: 14.33 min
  PHASE 2 % Contraction: 32.14%
  PHASE 2 Rate 2: 1.96 %/min
  PHASE 2 t2: 43.00 min
  PHASE 3 % Contraction: 52.91%
  PHASE 3 Rate 3: 3.83 ×10^−2 %/min
[9]
  Average Velocity: 0.74 %/min
  Clot Contraction Extent: 73.02%
  Lag time: 46.67 min
  PHASE 1 % Contraction: 9.24%
  PHASE 1 Rate 1: 4.00 ×10^−3 %/min
  PHASE 1 t1: 26.00 min
  PHASE 2 % Contraction: 20.75%
  PHASE 2 Rate 2: 1.08 %/min
  PHASE 2 t2: 52.00 min
  PHASE 3 % Contraction: 43.03%
  PHASE 3 Rate 3: 2.20 ×10^−2 %/min
Eptifibatide 150 μM
  Detection of the three phases of contraction: none of the three phases were detectible
[10]
  Average Velocity: 0.67 %/min
  Clot Contraction Extent: 66.08%
  Lag time: 50 min
Eptifibatide 50 to 150 μM
  Effect on average velocity of contraction: dose-dependent decrease
  Effect on extent of contraction: dose-dependent decrease
  Increase in lag time: ~4 fold

## Fibrinogen
[11]
  AUC: 6.66 AU
  Average Velocity: 0.53 %/min
  Clot Contraction Extent: 53.50%
  Lag time: 46.67 min
  PHASE 1 % Contraction: 2.11%
  PHASE 1 Rate 1: 1.50 ×10^−3 %/min
  PHASE 1 t1: 13.00 min
  PHASE 2 % Contraction: 24.32%
  PHASE 2 Rate 2: 1.19 %/min
  PHASE 2 t2: 28.00 min
  PHASE 3 % Contraction: 43.44%
  PHASE 3 Rate 3: 2.90 ×10^−2 %/min
[12]
  AUC: 4.13 AU
  Average Velocity: 1.00 %/min
  Clot Contraction Extent: 98.07%
  Lag time: 26.40 min
  PHASE 1 % Contraction: 2.72%
  PHASE 1 Rate 1: 2.25 ×10^−3 %/min
  PHASE 1 t1: 10.75 min
  PHASE 2 % Contraction: 37.99%
  PHASE 2 Rate 2: 1.66 %/min
  PHASE 2 t2: 30.75 min
  PHASE 3 % Contraction: 57.36%
  PHASE 3 Rate 3: 5.90 ×10^−2 %/min
[13]
  AUC: 4.23 AU
  Average Velocity: 0.98 %/min
  Clot Contraction Extent: 96.87%
  Lag time: 21.67 min
  PHASE 1 % Contraction: 3.26%
  PHASE 1 Rate 1: 2.18 ×10^−3 %/min
  PHASE 1 t1: 10.40 min
  PHASE 2 % Contraction: 26.29%
  PHASE 2 Rate 2: 1.50 %/min
  PHASE 2 t2: 29.40 min
  PHASE 3 % Contraction: 67.28%
  PHASE 3 Rate 3: 4.96 ×10^−2 %/min
[14]
  AUC: 4.89 AU
  Average Velocity: 0.89 %/min
  Clot Contraction Extent: 88.42%
  Lag time: 17.80 min
  PHASE 1 % Contraction: 3.48%
  PHASE 1 Rate 1: 2.78 ×10^−3 %/min
  PHASE 1 t1: 9.40 min
  PHASE 2 % Contraction: 19.02%
  PHASE 2 Rate 2: 1.10 %/min
  PHASE 2 t2: 26.00 min
  PHASE 3 % Contraction: 65.92%
  PHASE 3 Rate 3: 3.32 ×10^−2 %/min
Fibrinogen 1,000 μg/mL
  Efficiency of contraction: too high for efficient contraction
[15]
  AUC: 6.18 AU
  Average Velocity: 0.69 %/min
  Clot Contraction Extent: 68.91%
  Lag time: 39.80 min
  PHASE 1 % Contraction: 4.20%
  PHASE 1 Rate 1: 3.03 ×10^−3 %/min
  PHASE 1 t1: 11.80 min
  PHASE 2 % Contraction: 10.11%
  PHASE 2 Rate 2: 0.70 %/min
  PHASE 2 t2: 25.40 min
  PHASE 3 % Contraction: 54.53%
  PHASE 3 Rate 3: 1.92 ×10^−2 %/min
Fibrinogen 62.5 to 1,000 μg/mL
  Fibrinogen concentrations with highest extent and average velocity of contraction: highest at 125 and 250
